One assay has as its target T1, CCK-A receptor (Rattus norvegicus, UniProt P30551).
T1 sequence (P30551 1-444): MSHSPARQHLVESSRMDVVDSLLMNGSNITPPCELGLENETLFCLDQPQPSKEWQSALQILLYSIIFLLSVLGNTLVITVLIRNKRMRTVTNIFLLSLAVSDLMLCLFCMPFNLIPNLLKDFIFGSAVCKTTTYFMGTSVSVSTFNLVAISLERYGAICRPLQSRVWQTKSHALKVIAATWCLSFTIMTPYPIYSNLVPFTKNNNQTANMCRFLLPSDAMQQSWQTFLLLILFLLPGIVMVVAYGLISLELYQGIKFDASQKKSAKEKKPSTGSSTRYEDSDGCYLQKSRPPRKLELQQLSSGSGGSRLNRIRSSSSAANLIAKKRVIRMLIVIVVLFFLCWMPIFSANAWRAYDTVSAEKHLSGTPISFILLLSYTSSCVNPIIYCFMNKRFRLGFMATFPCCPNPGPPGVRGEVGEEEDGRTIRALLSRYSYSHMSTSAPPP
The assay can be described thus: displacement of ^125 I-CCK from rat pancreas (CCK-A receptor binding).

The next assay has as its target T2, CCK-B receptor (Cavia porcellus, UniProt H0VZC5).
T2 construct: guinoa pig brain (CCK-B); from tissue; host or cells: guinea pig brain
T2 sequence (H0VZC5 1-426): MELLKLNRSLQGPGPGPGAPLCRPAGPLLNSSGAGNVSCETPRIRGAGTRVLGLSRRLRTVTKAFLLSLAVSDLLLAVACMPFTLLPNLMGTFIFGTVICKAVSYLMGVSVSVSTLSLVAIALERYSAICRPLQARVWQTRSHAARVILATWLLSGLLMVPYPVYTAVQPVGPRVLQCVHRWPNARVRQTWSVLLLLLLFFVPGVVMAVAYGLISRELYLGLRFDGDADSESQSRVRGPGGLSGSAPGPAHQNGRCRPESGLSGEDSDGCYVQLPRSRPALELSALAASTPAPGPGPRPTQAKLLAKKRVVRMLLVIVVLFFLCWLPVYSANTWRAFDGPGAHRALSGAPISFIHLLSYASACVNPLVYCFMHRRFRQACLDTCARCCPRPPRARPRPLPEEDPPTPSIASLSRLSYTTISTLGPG
The assay can be described thus: displacement of ^125 I-CCK from guinea pig brain (CCK-B receptor binding). As to conditions: guinoa pig brain (CCK-B).

The mark [1] stands for this setting: ^125 I-CCK, rat pancreas (CCK-A), read-out: CCK receptor binding IC50, ^125 I-CCK Pancreas.
[2] abbreviates: read-out: CCK receptor binding IC50, ^125 I-CCK Brain.

Usually IC50 stands for the concentration that gives 50% inhibition.

Structures can show the parent of a compound that is named as a salt. Where two headings read alike, the source gives them in different places.

Procedure for CCK-A receptor: (§1) The CCK-A and CCK-B antagonising activity of the compounds described herein was evaluated using the assays described in published European patent application no. […] The method essentially involves determining the concentration of the test compound required to displace 50% of the specific ^125 I--CCK from rat pancreas (CCK-A) or guinoa pig brain (CCK-B).
Procedure for CCK-B receptor: as §1

For the molecule `CCCN1C(=O)C(NC(=O)Nc2cccc(C)c2)N=C(C2CCCCN2)c2ccccc21` (single isomer, unassigned) [Example 1, N-[2,3-Dihydro-2-oxo-5-(piperidin-2-yl)-1-(1-propyl)-1H-1,4-benzodiazepin-3-yl]-N'-[3-methylphenyl]urea hydrochloride], the IC50 was more than 3000 nM on CCK-A receptor (setting [1]) and 41.8 nM at CCK-B receptor (setting [2]).

In the case of `CCCN1C(=O)C(NC(=O)Nc2cccc(C)c2)N=C(C2CCCCN2)c2ccccc21` (single isomer, unassigned) [Example 2, N-[2,3-Dihydro-2-oxo-5-(piperidin-2-yl)-1-(1-propyl)-1H-1,4,benzodiazepin-3-yl]-N'-[3-methylphenylurea hydrochloride], the values for the IC50 on CCK-A receptor (setting [1]) and on CCK-B receptor (setting [2]) were more than 3000 nM and 36.4 nM, respectively.

The molecule `CCCN1C(=O)C(NC(=O)Nc2cccc(C)c2)N=C(C2CCCCN2C)c2ccccc21` (single isomer, unassigned) [Example 3, N-[2,3-Dihydro-5-(1-methylpiperidin-2-yl)-2-oxo-1-(1propyl)-1H-1,4-benzodiazepin-3-yl]-N'-[3-methylphenyl]urea hydrochloride] returned an IC50 on CCK-B receptor (CCK receptor binding IC50, ^125 I-CCK Brain) of 53.6 nM.

Regarding `CCCN1C(=O)C(NC(=O)Nc2cccc(C)c2)N=C(C2CCC(C)(C)CCN2C)c2ccccc21` (single isomer, unassigned) [Example 5, N-[2,3-Dihydro-5-(2,3,4,5,6-hexahydro-1,5,5,-trimethyl-1H-azepin-2-yl)-2-oxo-1-(1-propyl)-1H-1,4-benzodiazepin-3-yl]-N'-[3-methylphenyl]urea hydrochloride], the IC50 on CCK-B receptor (setting [2]) came to 25.5 nM.

Regarding `Cc1cccc(NC(=O)NC2N=C(C3CCC(C)(C)CCN3)c3ccccc3N(C)C2=O)c1` (single isomer, unassigned) [Example 6, N-[2,3-Dihydro-5-(5,5-dimethyl-2,3,4,5,6-hexahydro-1H-azepin-2-yl)-1-methyl-2-oxo-1H-1,4-benzodiazepin-3-yl]-N'-[3-methylphenyl]urea hydrochloride], at CCK-B receptor (setting [2]), the IC50 was found to be 12 nM.

In the case of `CN1C(=O)C(NC(=O)Nc2ccc3c(c2)CCC3)N=C(C2CCC(C)(C)CCN2)c2ccccc21` (single isomer, unassigned) [Example 7, N-[2,3-Dihydro-5-(5,5-dimethyl-2,3,4,5,6-hexahydro-1H-azepin-2-yl)-1-methyl-2-oxo-1H-1,4-benzodiazepin-3-yl]-N'-[5-indanyl]urea hydrochloride], the figures for the IC50 on CCK-A receptor (setting [1]) and at CCK-B receptor (setting [2]) were 6490 nM and 2.37 nM, respectively.

Take `CCCN1C(=O)C(NC(=O)Nc2cccc(C)c2)N=C(C2CC(C)(C)CCN2)c2ccccc21` (single isomer, unassigned) [Example 8, N-[2,3-Dihydro-5-(4,4-dimethylpiperidin-2-yl)-2-oxo-1-(1-propyl)-1H-1,4-benzodiazepin-3-yl]-N'-[3-methylphenyl]urea hydrochloride]: the IC50 at CCK-B receptor (setting [2]) is 1.47 nM.

`CCCN1C(=O)C(NC(=O)Nc2ccc3c(c2)CCC3)N=C(C2CC(C)(C)CCN2)c2ccccc21` (single isomer, unassigned) [Example 12, N-[2,3-Dihydro-5-(4,4-dimethylpiperidin-2-yl)-2-oxo-1-(1-propyl)-1H, 1,4-benzodiazepin-3-yl-N'-[5-indanyl]urea hydrochloride]: the IC50 at CCK-A receptor worked out at 3220 nM.

Take `Cc1cccc(NC(=O)NC2N=C(C3CCNCC3)c3ccccc3N(CC(C)C)C2=O)c1` (centres unmarked) [Example 9, N-[2,3-Dihydro-1-(2-methylpropyl)-2-oxo-5-(piperidin-4-yl)-1H-1,4-benzodiazepin-3-yl]-N'-[3-methylpheny]urea trifluoroacetic acid salt]: the IC50 on CCK-A receptor (setting [1]) is 2670 nM; at CCK-B receptor (setting [2]), 290 nM.

`Cc1cccc(NC(=O)NC2N=C(C3CCN(C)CC3)c3ccccc3N(CC(C)C)C2=O)c1` (centres unmarked) [Example 10, N-[2,3-Dihydro-5-(N-methylpiperidin-4-yl)-1-(2-methylpropyl)-2-oxo-1H-1,4-benzodiazepin-3-yl]-N'-[3-methylphenyl]urea hydrochloric acid salt]: the IC50 at CCK-A receptor (setting [1]) is 2930 nM; at CCK-B receptor (setting [2]) it was 240 nM.

Consider `CC(C)CN1C(=O)C(NC(=O)Nc2cccc(-c3nnn[nH]3)c2)N=C(C2CCNCC2)c2ccccc21` (centres unmarked) [Example 11, N-[2,3-Dihydro-1-(2-methylpropyl)-2-oxo-5-(piperidin-4-yl)-1H-1,4-benzodiazepin-3-yl]-N'-[3-(tetrazol-5-yl)phenyl]urea, trifluoroacetic acid salt], for which the IC50 at CCK-A receptor (setting [1]) was more than 3000 nM; on CCK-B receptor (setting [2]) it was 55 nM.

Values taken from patent US5521175A, “Benzodiazepine derivatives” (Merck Sharp & Dohme Ltd., priority 1992, dated 1996).
